Legend:
TG, LDL-C = assay: TG and LDL-C plasma levels in model rats; format: in vivo, rat; conditions: 3 mg/kg
Experimental: (§1) To establish model of T2DM, male rats (80–100 g, 9-week-old)[49] were fed high fat diet (HFD) (20% sugar, 10% lard, 10% egg yolk and 60% basal feed) after a week of normal diet. After 4 weeks, rats were injected once with low-dose streptozotocin (Solarbio, China) (STZ, 30 mg/kg i.p) to induce partial insulin deficiency, and then continuously fed HFD for 4 weeks after injection of STZ. Then the model rats were oral administrated drugs for 30 days. The body weights were recorded once a week.
(§2) Oral glucose load, fasted and random blood samples were collected from rats on the 28th days, the 29th days and the last of the treatment of drugs, respectively. Plasma levels of insulin and GLP-1 were measured by ELISA kits (YuanYe, China) according to the manufacturer’s recommendation. The levels of HbA1c, Triglycerides (TG), total cholesterol (TC) and low density lipoprotein cholesterol (LDL-C) in blood samples were measured by commercial assay kits (JianCheng, Nanjing, China) according to the manufacturer’s directions.

pancreatic islets = assay: Morphologic observation on islet of model rats (HE, immunofluorescence, TEM); format: in vivo, rat
Experimental: HE staining on paraffin section was performed as described in reports. In brief, paraffin section were rinsed with PBS, fixed with 4% paraformaldehyde (PFA) for 30 min and then washed by PBS. The pancreas tissue were stained with Hematoxylin-Eosin, afterwards, they were dehydrated in alcohols. Morphological changes of the pancreas tissue were observed under an optical microscope (Olympus, Japan) after mounted by neutral resins.
Pancreas sections (8 μm) were cut in a cryostat and collected on superfrost microscope slides. The slides were stored at −20 °C till analysis. Immunofluorescent staining was used for detection of insulin (β cells) (1:100, Anti-Insulin antibody, Abcam), glucagon (α cells) (1:200, Anti-glucagon, Abcam). Briefly, the slides were blocked in 5% normal goat serum for 1 h in a humidified chamber. Slides were exposed to primary antibodies at a dilution of […] in antibody diluting solution at 4 °C overnight, washed in PBS, and exposed to appropriate secondary antibodies linked to the fluorescent probes (Goat Anti-Guinea pig IgG/FITC and Alexa Fluor 594-conjugated Goat Anti-Rabbit IgG) (Bioss and Proteintech, China) in antibody diluting solution for 1 h and DAPI (Beyotime, China) for 5 min in the dark. After washed by PBS, slides were mounted with a glycerol mounting medium. Images were collected using a fluorescent microscope (Nikon, Japan).
For transmission electron microscopy, about 1 mm^3 tissue specimens were obtained from the same pancreas region of the control and experimental groups of rats, and fixed overnight in 2% glutaraldehyde (pH7.3) in 0.1 M phosphate buffer saline at 4 °C. Images of pancreatic islets were captured from random tissue sections using a transmission electron microscope.

[1] = Body weight of model rats; format: in vivo, rat; conditions: 30 days treatment
Experimental: as §1

INS-1 cells = assay: Proliferation of INS-1 cells (CCK-8); format: cell-based, rat; conditions: 24 h, CCK-8, vs DMSO
Experimental: The rat insulinoma cell line INS-1 (832/13) was obtained from the Department of endocrinology at 1st affiliated hospital of Chongqing medical university. Cells were cultured in RPMI 1640 (Gibco, USA) (11 mmol/l glucose, 100 units/ml penicillin, […] streptomycin, 10 mmol/l HEPES pH 7.4) supplemented with 10% FBS (Gibco, USA), 2 mmol/l L-glutamine, 1 mmol/l pyruvate, and 50 μmol/l β-mercaptoethanol. […] 10 μl of CCK-8 was then added and incubated at 37 °C and 5% CO2 for 1.5 h and […] (OD) was read at 460 nm with microplate reader. The OD value represents the proliferation activity.

insulin = assay: Plasma insulin levels in model rats (ELISA); format: in vivo, rat; conditions: 3 mg/kg, fasted and glucose load plasma
Experimental: as §1, §2

NCI-H716 cells = assay: GLP-1 secretion in NCI-H716 cells; format: cell-based, human; conditions: 10, 30, 100 μM, 2 h, compared with solvent group
Experimental: Human enteroendocrine NCI-H716 cells were maintained in suspension culture as described by the American Type Culture Collection guideline (ATCC). Two days before the experiments, cells were seeded into 12-well culture plates coated with Matrigel at 1 × 10^6 cells per well. Cells were incubated in RPMI 1640 containing 10% FBS at 37 °C for 48 h. […] After incubated for 2 h, GLP-1 concentrations from the supernatants were measured by ELISA kits (YuanYe, China).

HbA1c = HbA1c level in blood of model rats; format: in vivo, rat; conditions: 3 mg/kg, 30 days
Experimental: as §1, §2

[2] = tested on: model rats (HFD/low-dose STZ, T2DM); assay: Oral glucose tolerance test (OGTT) in HFD/STZ T2DM model rats; format: in vivo, rat; conditions: 3 mg/kg oral, model rats
Experimental: as §1
On the 1st day, 19th days and 29th days of treatment, oral glucose tolerance tests for model rats were carried out. […] The blood glucose levels were tested using Johnson one touch Ultra Test Strips on Johnson Performa blood glucose meter.

SMILES: N#C[C@@H]1CCCN1C(=O)CNC12CC3CC(CC(O)(C3)C1)C2 [vildagliptin, reference compound]
- reduction of LDL-C level (TG, LDL-C): 15.97%
- reduction of TG level (TG, LDL-C): 38.79%
- distribution of β cells (insulin/glucagon double staining) (pancreatic islets; 30 days treatment): obviously improved
- mass of α-cells (insulin/glucagon double staining) (pancreatic islets; 30 days treatment): mildly reduced
- morphology of pancreatic islets (HE staining) (pancreatic islets; 30 days treatment): prevent islet from damage
- secretory granules in β cells (transmission electron microscopy) (pancreatic islets; compared with the model): obviously increased
- body weights vs model group [1]: no significant difference
- cells viabilities (proliferation) of INS-1 cells (INS-1 cells): increased
- insulin levels in plasma (insulin): significantly increased
- GLP-1 levels (secretion) (NCI-H716 cells): increased slightly without significance
- reduction of the level of HbA1c (HbA1c): 2.0%
- percentage reduction of blood glucose levels in OGTT ([2]; 1st day): 8.9%
- percentage reduction of blood glucose levels in OGTT ([2]; 19th day): 10.1%
- percentage reduction of blood glucose levels in OGTT ([2]; 29th day): 17.8%

From article PMC5390258, “CMD-05, a novel promising clinical anti-diabetic drug candidate, in vivo and vitro studies” (Scientific Reports, 2017)
